Measurements reported in the Kinase Knowledgebase extract (Sharma et al. 2016).

Target: PIK3CA (human) (UniProt P42336)
Assay: Assessment of PIK3CA Kinase Activity

PIK3CA (human), sequence (P42336 whole entry, looked up): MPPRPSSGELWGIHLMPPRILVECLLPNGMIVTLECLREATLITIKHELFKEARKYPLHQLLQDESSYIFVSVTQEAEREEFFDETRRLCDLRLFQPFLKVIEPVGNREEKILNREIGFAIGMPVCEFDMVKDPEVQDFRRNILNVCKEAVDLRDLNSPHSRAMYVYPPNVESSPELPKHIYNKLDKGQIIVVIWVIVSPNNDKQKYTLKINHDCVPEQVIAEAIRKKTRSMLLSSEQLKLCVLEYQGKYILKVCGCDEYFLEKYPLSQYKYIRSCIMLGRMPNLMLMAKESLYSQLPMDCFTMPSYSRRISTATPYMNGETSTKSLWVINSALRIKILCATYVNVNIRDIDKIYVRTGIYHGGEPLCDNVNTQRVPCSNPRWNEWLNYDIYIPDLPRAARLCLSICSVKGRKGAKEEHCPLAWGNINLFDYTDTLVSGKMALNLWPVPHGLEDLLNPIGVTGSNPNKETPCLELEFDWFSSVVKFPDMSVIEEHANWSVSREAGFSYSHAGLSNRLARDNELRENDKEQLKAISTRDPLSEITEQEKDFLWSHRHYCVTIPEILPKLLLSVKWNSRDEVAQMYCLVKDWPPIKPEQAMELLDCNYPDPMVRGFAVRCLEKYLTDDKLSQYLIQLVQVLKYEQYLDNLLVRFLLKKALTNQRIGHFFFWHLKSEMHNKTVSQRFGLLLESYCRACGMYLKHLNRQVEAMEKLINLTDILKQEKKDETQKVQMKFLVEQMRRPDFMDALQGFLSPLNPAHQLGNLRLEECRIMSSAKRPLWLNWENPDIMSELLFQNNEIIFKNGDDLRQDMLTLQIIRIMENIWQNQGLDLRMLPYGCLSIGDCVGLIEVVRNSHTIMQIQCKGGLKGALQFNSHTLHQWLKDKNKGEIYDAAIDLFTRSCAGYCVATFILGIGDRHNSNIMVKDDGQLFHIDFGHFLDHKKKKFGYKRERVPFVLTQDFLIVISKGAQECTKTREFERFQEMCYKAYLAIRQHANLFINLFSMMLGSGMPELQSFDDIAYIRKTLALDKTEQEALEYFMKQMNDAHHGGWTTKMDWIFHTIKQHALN

| SMILES | IC50 [µM] |
| --- | --- |
| COCCc1c(C)nc(CN2CCCC2)nc1N1CCOc2c(C)cc(-c3cnc4sc(N)nc4c3)cc2C1 | ≤ 0.1 |
| Cc1cc(-c2cccnc2)cc2c1OCCN(c1nc(N)nc(C)c1C(C)C)C2 | ≤ 0.1 |
| Cc1cc(-c2nnc(N)s2)cc2c1OCCN(c1nc(CN(C)CC(F)F)nc(C)c1C(C)C)C2 | ≤ 0.1 |
| CNc1nc(-c2cc(C)c3c(c2)CN(c2nc(N)nc(C)c2C(C)C)CCO3)cs1 | 0.1 to 0.5 |
| Cc1cc(-c2nnc(N)s2)cc2c1OCCN(c1ncnc(C)c1C(C)C)C2 | ≤ 0.1 |
| COc1ncc(-c2cc(C)c3c(c2)CN(c2nc(N)nc(C)c2C(C)C)CCO3)cn1 | ≤ 0.1 |
| COCCc1nc(C)c(C(C)C)c(N2CCOc3c(C)cc(-c4cnc(Cl)c(NS(C)(=O)=O)c4)cc3C2)n1 | ≤ 0.1 |
| Cc1cc(-c2cnn(C)c2)cc2c1OCCN(c1nc(N)nc(C)c1C(C)C)C2 | 0.1 to 0.5 |
| CCN(Cc1nc(C)c(C(C)C)c(N2CCOc3c(C)cc(-c4nnc(N)s4)cc3C2)n1)CC(F)F | ≤ 0.1 |
| Cc1cc(-c2nnc(N)s2)cc2c1OCCN(c1nc(N)nc(C)c1C)C2 | ≤ 0.1 |
| Cc1cc(-c2cnc(N)c(S(N)(=O)=O)c2)cc2c1OCCN(c1nc(N)nc(C)c1C(C)C)C2 | ≤ 0.1 |
| Cc1cc(-c2nnc(N)s2)cc2c1OCCN(c1nc(CNCC(F)F)nc(C)c1C(C)C)C2 | ≤ 0.1 |
| Cc1cc(-c2cnc(N)nc2)cc2c1OCCN(c1nc(N)nc(C)c1C(C)C)C2 | ≤ 0.1 |
| CC(=O)Nc1ncc(-c2cc(C)c3c(c2)CN(c2nc(N)nc(C)c2C(C)C)CCO3)s1 | 0.1 to 0.5 |
| CCN(CC)Cc1nc(C)c(C(C)C)c(N2CCOc3c(C)cc(-c4cnc5sc(N)nc5c4)cc3C2)n1 | ≤ 0.1 |
| Cc1nc2ccc(-c3cc(C)c4c(c3)CN(c3ncnc5ccc(I)cc35)CCO4)cc2[nH]1 | ≤ 0.1 |
| Cc1ncc(-c2cc(C)c3c(c2)CN(c2nc(N)nc(C)c2C(C)C)CCO3)s1 | 0.1 to 0.5 |
| Cc1ncc(C(C)C)c(N2CCOc3c(C)cc(-c4nnc(N)s4)cc3C2)n1 | ≤ 0.1 |
| CCn1cc(-c2cc(C)c3c(c2)CN(c2nc(N)nc(C)c2C(C)C)CCO3)cn1 | 0.1 to 0.5 |
| Cc1cc(-c2cnc(Cl)c(NS(C)(=O)=O)c2)cc2c1OCCN(c1nc(N)nc(C)c1C(C)C)C2 | ≤ 0.1 |

| SMILES | IC50 [µM] |
| --- | --- |
| Cc1nc2ccc(-c3cc(C)c4c(c3)CN(c3nc(CN(C)C)nc(C)c3C(C)C)CCO4)cc2[nH]1 | ≤ 0.1 |
| Cc1cc(-c2cnc3sc(N)nc3c2)cc2c1OCCN(c1nc(CNCC(F)(F)F)nc(C)c1C(C)C)C2 | ≤ 0.1 |
| COc1cc(-c2cnc3sc(N)nc3c2)cc2c1OCCN(c1nc(N)nc(C)c1C(C)C)C2 | ≤ 0.1 |
| Cc1cc(-c2cnc3sc(N)nc3c2)cc2c1OCCN(c1nc(C3CCCN3C)nc(C)c1C(C)C)C2 (stereo not drawn) | ≤ 0.1 |
| Cc1cc(-c2cnc3sc(N)nc3c2)cc2c1OCCN(c1nc([C@@H]3CC(F)(F)CN3)nc(C)c1C(C)C)C2 | ≤ 0.1 |
| Cc1cc(-c2cn(C)nc2C)cc2c1OCCN(c1nc(N)nc(C)c1C(C)C)C2 | ≤ 0.1 |
| Cc1cc(-c2cnc(Cl)c(NS(C)(=O)=O)c2)cc2c1OCCN(c1nc(CNCC(F)F)nc(C)c1C(C)C)C2 | ≤ 0.1 |
| Cc1cc(-c2nnc(N)s2)cc2c1OCCN(c1ncnc(C)c1C)C2 | ≤ 0.1 |
| Cc1nc2cc(-c3cc(C)c4c(c3)CN(c3nc(N)nc(C)c3C(C)C)CCO4)cnc2[nH]1 | ≤ 0.1 |
| Cc1cc(-c2nnc(N)s2)cc2c1OCCN(c1nc(N)nc(C)c1C(C)C)C2 | ≤ 0.1 |
| Cc1cc(-c2cnc(Cl)c(NS(C)(=O)=O)c2)cc2c1OCCN(c1nc(C(N)=O)nc(C)c1C(C)C)C2 | ≤ 0.1 |
| C=Cc1c(C)nc(N)nc1N1CCOc2c(C)cc(-c3nnc(N)s3)cc2C1 | ≤ 0.1 |
| Cc1cc(-c2ccc(-c3ncc[nH]3)cc2)cc2c1OCCN(c1nc(N)nc(C)c1C(C)C)C2 | 0.1 to 0.5 |
| Cc1cc(-c2ccc(N)nc2)cc2c1OCCN(c1nc(N)nc(C)c1C(C)C)C2 | 0.1 to 0.5 |
| Cc1cc(-c2cnc3nc[nH]c3c2)cc2c1OCCN(c1nc(CNCC(F)F)nc(C)c1C(C)C)C2 | ≤ 0.1 |
| Cc1cnc(N)nc1N1CCOc2c(C)cc(-c3nnc(N)s3)cc2C1 | ≤ 0.1 |
| COc1ccc(-c2cc(C)c3c(c2)CN(c2nc(N)nc(C)c2C(C)C)CCO3)cc1OC | ≤ 0.1 |
| Cc1cc(-c2cccc(C(N)=O)c2)cc2c1OCCN(c1nc(N)nc(C)c1C(C)C)C2 | 0.1 to 0.5 |
| Cc1cc(-c2cnc3sc(N)nc3c2)cc2c1OCCN(c1nc(CN3CCCC3)nc(C)c1C(C)C)C2 | ≤ 0.1 |

The next lines start with the values.

| IC50 [µM] | SMILES |
| --- | --- |
| ≤ 0.1 | Cc1cc(-c2cnc3sc(N)nc3c2)cc2c1OCCN(c1nc(CO)nc(C)c1C(C)C)C2 |
| ≤ 0.1 | C=C(C)c1c(C)ncnc1N1CCOc2c(C)cc(-c3cnc4sc(N)nc4c3)cc2C1 |
| ≤ 0.1 | COCCc1cnc(C)nc1N1CCOc2c(C)cc(-c3cnc4sc(N)nc4c3)cc2C1 |
| ≤ 0.1 | Cc1cc(-c2cnc3sc(N)nc3c2)cc2c1OCCN(c1ncc(F)c(N)n1)C2 |
| ≤ 0.1 | Cc1cc(-c2cnc3sc(N)nc3c2)cc2c1OCCN(c1nc(N)nc(C)c1CC1CC1)C2 |
| 0.1 to 0.5 | Cc1cc(-c2cnc3sc(N)nc3c2)cc2c1OCCN(c1nccnc1C#N)C2 |
| ≤ 0.1 | Cc1cc(-c2cnc3sc(N)nc3c2)cc2c1OCCN(c1nc(CN3CCCC3)ncc1C(C)C)C2 |
| ≤ 0.1 | Cc1cc(-c2cnc3sc(N)nc3c2)cc2c1OCCN(c1nc(C3CCCN3)nc(C)c1C(C)C)C2 (stereo not drawn) |
| ≤ 0.1 | Cc1cc(-c2cnc3sc(N)nc3c2)cc2c1OCCN(c1nc(CC#N)nc(C)c1C(C)C)C2 |
| ≤ 0.1 | CCc1c(Cl)nc(CN(C)C)nc1N1CCOc2c(C)cc(-c3cnc4sc(N)nc4c3)cc2C1 |
| ≤ 0.1 | Cc1cc(-c2cnc3sc(N)nc3c2)cc2c1OCCN(c1nc(N)nc3c1CC(C)(C)CC3)C2 |
| ≤ 0.1 | Cc1cnccc1N1CCOc2c(C)cc(-c3cnc4sc(N)nc4c3)cc2C1 |
| ≤ 0.1 | Cc1ncc(C(C)C)c(N2CCOc3c(C)cc(-c4cnc5sc(N)nc5c4)cc3C2)n1 |
| ≤ 0.1 | C=C(C)c1c(C)nc(N)nc1N1CCOc2c(C)cc(-c3cnc4sc(N)nc4c3)cc2C1 |
| ≤ 0.1 | CC#CCc1c(C)nc(C)nc1N1CCOc2c(C)cc(-c3cnc4sc(N)nc4c3)cc2C1 |
| ≤ 0.1 | Cc1cc(-c2cnc3sc(N)nc3c2)cc2c1OCCN(c1nc(N)ncc1C(F)(F)F)C2 |
| 0.1 to 0.5 | Cc1cc(-c2cnc3sc(N)nc3c2)cc2c1OCCN(c1ccc(C#N)cn1)C2 |
| 0.1 to 0.5 | Cc1cc(-c2cnc3sc(N)nc3c2)cc2c1OCCN(c1ncc(C(N)=O)c(N)n1)C2 |
| ≤ 0.1 | CCc1c(C)nc(CN(C)C)nc1N1CCOc2c(C)cc(-c3cnc4sc(N)nc4c3)cc2C1 |
| ≤ 0.1 | COCCc1c(C)nc(C)nc1N1CCOc2c(C)cc(-c3cnc4sc(N)nc4c3)cc2C1 |
| ≤ 0.1 | CCc1cnc(CN(C)C)nc1N1CCOc2c(C)cc(-c3cnc4sc(N)nc4c3)cc2C1 |
| ≤ 0.1 | Cc1cc(-c2cnc(Cl)c(NS(C)(=O)=O)c2)cc2c1OCCN(c1ncc(C#N)c(N)n1)C2 |
| ≤ 0.1 | Cc1cc(-c2cnc3sc(N)nc3c2)cc2c1OCCN(c1nc(C(F)F)nc(C)c1C(C)C)C2 |
| ≤ 0.1 | C=Cc1c(Cl)nc(N)nc1N1CCOc2c(C)cc(-c3cnc4sc(N)nc4c3)cc2C1 |
| ≤ 0.1 | COCCc1c(C)ncnc1N1CCOc2c(C)cc(-c3cnc4sc(N)nc4c3)cc2C1 |
| ≤ 0.1 | COC(C)c1c(C)nc(C)nc1N1CCOc2c(C)cc(-c3cnc4sc(N)nc4c3)cc2C1 (stereo not drawn) |
| ≤ 0.1 | Cc1cc(-c2cnc3sc(N)nc3c2)cc2c1OCCN(c1nc(C(F)(F)F)nc(C)c1C(C)C)C2 |

| IC50 [µM] | SMILES |
| --- | --- |
| ≤ 0.1 | Cc1cc(-c2cnc3sc(N)nc3c2)cc2c1OCCN(c1nc(CN(C)C(C)(C)C)nc(C)c1C(C)C)C2 |
| ≤ 0.1 | Cc1cc(-c2cnc3sc(N)nc3c2)cc2c1OCCN(c1ncnc(Cl)c1C(C)C)C2 |
| ≤ 0.1 | Cc1cc(-c2cnc3sc(N)nc3c2)cc2c1OCCN(c1nc(N)nc(Cl)c1C(C)C)C2 |
| ≤ 0.1 | CCNC(=O)c1nc(C)c(C(C)C)c(N2CCOc3c(C)cc(-c4cnc5sc(N)nc5c4)cc3C2)n1 |
| 0.1 to 0.5 | Cc1cc(-c2cnc3sc(N)nc3c2)cc2c1OCCN(c1nc(CN(C)C)ncc1CC(F)(F)F)C2 |
| ≤ 0.1 | Cc1cc(-c2cnc3sc(N)nc3c2)cc2c1OCCN(c1nc(S(C)(=O)=O)nc(C)c1C(C)C)C2 |
| ≤ 0.1 | Cc1cc(-c2cnc3sc(N)nc3c2)cc2c1OCCN(c1nc(CNC(C)(C)C)nc(C)c1C(C)C)C2 |
| 0.1 to 0.5 | Cc1cc(-c2cnc3sc(N)nc3c2)cc2c1OCCN(c1ncnc(Cl)c1C(C)(C)O)C2 |
| ≤ 0.1 | CCc1c(C)nc(N)nc1N1CCOc2c(C)cc(-c3cnc4sc(N)nc4c3)cc2C1 |
| ≤ 0.1 | C#CCc1c(C)nc(C)nc1N1CCOc2c(C)cc(-c3cnc4sc(N)nc4c3)cc2C1 |
| ≤ 0.1 | Cc1cc(-c2cnc3sc(N)nc3c2)cc2c1OCCN(c1nc(N)ncc1C(C)C)C2 |
| ≤ 0.1 | CCc1nc(CN(C)C)nc(N2CCOc3c(C)cc(-c4cnc5sc(N)nc5c4)cc3C2)c1C(C)C |
| ≤ 0.1 | Cc1cc(-c2cnc3sc(N)nc3c2)cc2c1OCCN(c1nc(N)nc(C)c1-c1cccc(F)c1)C2 |
| ≤ 0.1 | CCc1nc(N)nc(N2CCOc3c(C)cc(-c4cnc5sc(N)nc5c4)cc3C2)c1C(C)C |
| ≤ 0.1 | C#Cc1c(C)nc(N)nc1N1CCOc2c(C)cc(-c3cnc4sc(N)nc4c3)cc2C1 |
| 0.1 to 0.5 | Cc1cc(-c2cnc3sc(N)nc3c2)cc2c1OCCN(c1ncccc1C#N)C2 |
| ≤ 0.1 | Cc1cc(-c2cnc3sc(N)nc3c2)cc2c1OCCN(c1nc(N3CC(O)C3)nc(C)c1C(C)C)C2 |
| ≤ 0.1 | CCc1nc(CN(C)C)nc(N2CCOc3c(C)cc(-c4cnc5sc(N)nc5c4)cc3C2)c1CC |
| ≤ 0.1 | C=Cc1c(C)nc(N)nc1N1CCOc2c(C)cc(-c3cnc4sc(N)nc4c3)cc2C1 |
| ≤ 0.1 | COCCc1nc(C)c(C(C)C)c(N2CCOc3c(C)cc(-c4cnc5sc(N)nc5c4)cc3C2)n1 |
| ≤ 0.1 | Cc1cc(-c2cnc3sc(N)nc3c2)cc2c1OCCN(c1ncnc(C)c1C(C)C)C2 |
| ≤ 0.1 | COCc1nc(C)c(C(C)C)c(N2CCOc3c(C)cc(-c4cnc5sc(N)nc5c4)cc3C2)n1 |
| ≤ 0.1 | C=CCc1c(C)nc(N)nc1N1CCOc2c(C)cc(-c3cnc4sc(N)nc4c3)cc2C1 |
| ≤ 0.1 | Cc1cc(-c2cnc3sc(N)nc3c2)cc2c1OCCN(c1nc([S+](C)[O-])nc(C)c1C(C)C)C2 (stereo not drawn) |
| ≤ 0.1 | COCCOc1nc(C)c(C(C)C)c(N2CCOc3c(C)cc(-c4cnc5sc(N)nc5c4)cc3C2)n1 |
| ≤ 0.1 | COCC(C)c1c(C)nc(C)nc1N1CCOc2c(C)cc(-c3cnc4sc(N)nc4c3)cc2C1 (stereo not drawn) |
| 0.1 to 0.5 | Cc1cc(-c2cnc3sc(N)nc3c2)cc2c1OCCN(c1ncccc1C(N)=O)C2 |
